Assay results as given in US10745400B2, “Inhibition of BMP signaling, compounds, compositions and uses thereof” (Vanderbilt University, priority 2018, dated 2020).
Positions count from the first letter of the chain named.

Experiments:
ALK1/ACVRL1 = ALK1/ACVRL1 (Homo sapiens, UniProt P37023); test: Kinase assay (33P-ATP filter-binding), ALK1; type: biochemical; conditions: read-out: Kinase Selectivity ALK1/ACVRL1
Protocol: (§1) The kinase assays were carried out briefly as follows. Substrate was prepared in Base Reaction Buffer (20 mM Hepes (pH 7.5), 10 mM MgCl2, 1 mM EGTA, 0.02% Brij35, 0.02 mg/ml BSA, 0.1 mM Na3VO4, 2 mM DTT, 1% DMSO). The indicated kinases was delivered into the substrate solution and allowed to gently mix. Next, the specific compound was delivered in DMSO into the kinase mixture by Acoustic technology (Echo550; nanoliter range), and allowed to incubate for 20 minutes at room temperature. Next, ^33P-ATP was delivered into the reaction mixture to initiate the reaction and allowed to incubate at room temperature. After 2 hours, the reactions were spotted onto P81 ion exchange paper and the kinase activity is detected by the filter-binding method.

ALK2/ACVR1 = target: T1, ALK2/ACVR1 (Homo sapiens, UniProt Q04771); test: Kinase assay (33P-ATP filter-binding), ALK2; type: biochemical; conditions: 20 mM; read-out: Kinase Selectivity ALK2/ACVR1 (20 mM)
T1 sequence (Q04771 21-509): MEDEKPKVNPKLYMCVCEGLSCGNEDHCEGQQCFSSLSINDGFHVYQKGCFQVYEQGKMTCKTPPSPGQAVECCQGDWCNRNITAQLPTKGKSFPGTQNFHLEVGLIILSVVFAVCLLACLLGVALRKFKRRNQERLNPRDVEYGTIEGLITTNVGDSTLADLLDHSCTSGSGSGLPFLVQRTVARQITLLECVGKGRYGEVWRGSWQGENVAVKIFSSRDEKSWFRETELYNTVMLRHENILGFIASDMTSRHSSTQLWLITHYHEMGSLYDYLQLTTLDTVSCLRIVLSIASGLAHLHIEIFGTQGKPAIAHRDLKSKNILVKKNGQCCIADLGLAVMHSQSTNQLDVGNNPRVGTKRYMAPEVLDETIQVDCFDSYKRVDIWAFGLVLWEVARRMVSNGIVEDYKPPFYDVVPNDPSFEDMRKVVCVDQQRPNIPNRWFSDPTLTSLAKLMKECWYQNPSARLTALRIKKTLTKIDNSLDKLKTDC
Protocol: as §1

ALK2 (Q207D) = target: T2, ALK2 (Q207D) (Homo sapiens, UniProt Q04771, Q207D); test: Kinase assay (33P-ATP filter-binding), ALK2 Q207D; type: biochemical; conditions: Q207D mutant, 20 mM; read-out: Kinase Selectivity ALK2 (Q207D, 20 mM)
T2 sequence (Q04771 21-509 Q207D): T1 sequence (Q04771 21-509) with Q187D
Protocol: as §1

ALK2 (R206H) = target: T3, ALK2 (R206H) (Homo sapiens, UniProt Q04771, R206H); test: Kinase assay (33P-ATP filter-binding), ALK2 R206H; type: biochemical; conditions: R206H mutant, 20 mM; read-out: Kinase Selectivity ALK2 (R206H, 20 mM)
T3 sequence (Q04771 21-509 R206H): T1 sequence (Q04771 21-509) with R186H
Protocol: as §1

ALK3/BMPR1A = ALK3/BMPR1A (Homo sapiens, UniProt P36894); test: Kinase assay (33P-ATP filter-binding), ALK3; type: biochemical; conditions: 1 mM; read-out: Kinase Selectivity ALK3/BMPR1A (1 mM)
ALK3/BMPR1A, sequence (P36894 24-532): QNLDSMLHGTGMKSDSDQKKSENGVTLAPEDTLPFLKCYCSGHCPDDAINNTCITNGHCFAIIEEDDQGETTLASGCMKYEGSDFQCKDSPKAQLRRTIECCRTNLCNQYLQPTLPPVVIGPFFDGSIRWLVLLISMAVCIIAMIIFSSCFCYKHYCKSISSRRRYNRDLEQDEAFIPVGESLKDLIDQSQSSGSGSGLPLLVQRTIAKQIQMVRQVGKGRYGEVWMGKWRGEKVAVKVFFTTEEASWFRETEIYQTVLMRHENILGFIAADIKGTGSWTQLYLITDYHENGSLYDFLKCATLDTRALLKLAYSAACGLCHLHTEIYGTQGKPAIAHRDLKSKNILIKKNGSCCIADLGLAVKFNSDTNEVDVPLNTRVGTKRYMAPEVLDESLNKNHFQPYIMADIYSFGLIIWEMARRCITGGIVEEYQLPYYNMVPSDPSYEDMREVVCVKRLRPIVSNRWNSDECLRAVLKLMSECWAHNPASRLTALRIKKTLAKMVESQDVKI
Protocol: as §1

[1] = Intrinsic clearance, human; type: in vitro ADME; conditions: human
[2] = Intrinsic clearance, mouse; type: in vitro ADME; conditions: mouse
Protein binding, human = type: in vitro ADME
Protein binding, mouse = type: in vitro ADME
[3] = CL-Hep, value in parentheses, read-out: Intrinsic Clearance Human (CL-Hep)
[4] = read-out: Intrinsic Clearance Human
[5] = CL-Hep, value in parentheses, read-out: Intrinsic Clearance Mouse (CL-Hep)
[6] = read-out: Intrinsic Clearance Mouse

ALK1/ACVRL1, sequence (P37023 22-503): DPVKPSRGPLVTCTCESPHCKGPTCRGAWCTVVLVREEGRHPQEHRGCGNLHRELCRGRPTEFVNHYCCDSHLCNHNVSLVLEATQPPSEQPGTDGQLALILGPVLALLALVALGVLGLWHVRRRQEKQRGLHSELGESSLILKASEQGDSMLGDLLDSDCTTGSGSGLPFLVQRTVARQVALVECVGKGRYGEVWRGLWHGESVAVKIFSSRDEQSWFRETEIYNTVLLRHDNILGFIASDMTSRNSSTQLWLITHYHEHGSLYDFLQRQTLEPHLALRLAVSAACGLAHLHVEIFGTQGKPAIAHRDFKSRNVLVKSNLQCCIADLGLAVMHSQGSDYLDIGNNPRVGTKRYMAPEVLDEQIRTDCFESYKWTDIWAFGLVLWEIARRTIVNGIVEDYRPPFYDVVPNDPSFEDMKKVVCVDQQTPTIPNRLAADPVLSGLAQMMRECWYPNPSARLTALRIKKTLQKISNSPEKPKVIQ

Compound	IC50 (ALK1/ACVRL1) [nM]	IC50 (ALK2/ACVR1) [nM]	IC50 (ALK2 (Q207D)) [nM]	IC50 (ALK2 (R206H)) [nM]	IC50 (ALK3/BMPR1A) [nM]	CLint scaled [1, 3] [mL/min/kg]	CLint scaled [1, 4] [mL/min/kg]	CLint scaled [2, 5] [mL/min/kg]	CLint scaled [2, 6] [mL/min/kg]	Protein Binding (% Free) Human (Protein binding, human) [% Free]	Protein Binding (% Free) Mouse (Protein binding, mouse) [% Free]
Cc1cc(-c2cnc3cc(-c4ccc(C5C[C@@H](C)N[C@@H](C)C5)cc4)ccn23)c2cc(F)cc(F)c2n1 (stereo partly shown) [Compound 1]	880	54.2	68.1	60.9	28.5						
Cc1cc(-c2cnc3cc(-c4ccc(C5COCC(C)N5)cc4)ccn23)c2cc(F)ccc2n1 (stereo not shown) [Compound 20]	23	< 5.1	< 5.1	< 5.1	< 5.1	17.1	117	50.2	114	4.01	1.36
c1cnc2scc(-c3cnc4cc(-c5ccc(C6CNCCN6)cc5)ccn34)c2c1 (stereo not shown) [Compound 31]	30.7	20.1	< 5.1	20.6	21.2	< 11	< 23.1	33.6	53.5	16.2	6.8
Cc1cc(-c2cnc3cc(-c4ccc(N5CCC6(CCNCC6)C5)cc4)ccn23)c2cc(F)cc(F)c2n1 [Compound 5]	35300	2370	1740	2510	1330						
Cc1cc(-c2cnc3cc(-c4ccc(N5CCC6(CCC6)C5)cc4)ccn23)c2cc(F)cc(F)c2n1 [Compound 8]	> 50000	> 50000	> 50000	> 50000	43700						
Cc1cc(-c2cnc3cc(-c4ccc(N5CCC6(CCCCN6)CC5)cc4)ccn23)c2cc(F)cc(F)c2n1 [Compound 25]	777	55.5	170	258	54.7	14	46.3	97.8	198	1.43	0.55
Cc1cc(-c2cnc3cc(-c4ccc(N5CCC6(CCCNC6)C5)cc4)ccn23)c2cc(F)cc(F)c2n1 (stereo not shown) [Compound 6]	3460	171	200	218	19.9						
Cc1cc(-c2cnc3cc(-c4ccc(C5COCCN5)cc4)ccn23)c2ccccc2n1 (stereo not shown) [Compound 21]	< 5.1				< 5.1	17.5				3.05	6.24
Cc1cc(-c2cnc3cc(-c4ccc(N5CCNC6(CCC6)C5)cc4)ccn23)c2cc(F)cc(F)c2n1 [Compound 4]	386	29	24	25.5	2.52						
Cc1cc(-c2cnc3cc(-c4ccc(C5COCCN5)cc4)ccn23)c2cc(F)ccc2n1 (stereo not shown) [Compound 11]	23.5				< 5.1	17.4				1.52	3.23
Cc1cc(-c2cnc3cc(-c4ccc(N5CCCC6(CCCN6)C5)cc4)ccn23)c2cc(F)cc(F)c2n1 (stereo not shown) [Compound 2]	936	147	114	128	45						
